Measurements taken from paper PMC9485725, “The AIRE G228W mutation disturbs the interaction of AIRE with its partner molecule SIRT1” (Frontiers in Immunology, 2022).

Biological target: T1, human SIRT1 (Homo sapiens, UniProt Q96EB6)
T1 construct: purchased Sigma–Aldrich S8846
T1 sequence (Q96EB6 1-747): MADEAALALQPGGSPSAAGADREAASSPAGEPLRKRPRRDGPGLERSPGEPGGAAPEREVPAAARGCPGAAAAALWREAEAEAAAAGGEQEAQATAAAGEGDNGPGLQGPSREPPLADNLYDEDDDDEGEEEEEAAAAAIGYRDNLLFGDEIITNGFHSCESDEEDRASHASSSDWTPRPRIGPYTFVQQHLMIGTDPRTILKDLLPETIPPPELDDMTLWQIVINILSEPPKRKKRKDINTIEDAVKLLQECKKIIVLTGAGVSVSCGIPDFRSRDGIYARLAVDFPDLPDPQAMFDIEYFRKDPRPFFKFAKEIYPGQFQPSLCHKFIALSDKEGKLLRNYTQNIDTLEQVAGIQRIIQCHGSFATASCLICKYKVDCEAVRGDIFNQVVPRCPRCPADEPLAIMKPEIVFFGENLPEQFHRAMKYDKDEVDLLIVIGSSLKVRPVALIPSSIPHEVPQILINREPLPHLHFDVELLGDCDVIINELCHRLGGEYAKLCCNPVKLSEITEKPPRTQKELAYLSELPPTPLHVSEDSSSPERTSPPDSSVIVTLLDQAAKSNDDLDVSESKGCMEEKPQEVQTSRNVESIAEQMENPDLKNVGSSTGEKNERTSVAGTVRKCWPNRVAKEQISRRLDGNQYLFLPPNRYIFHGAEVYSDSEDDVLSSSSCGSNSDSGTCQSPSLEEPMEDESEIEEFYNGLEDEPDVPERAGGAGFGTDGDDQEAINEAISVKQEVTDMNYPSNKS
Assay: Surface plasmon resonance (Biacore T200) of SAND peptides on immobilized SIRT1
Assay type: binding
Conditions: for association with SIRT1 / association with SIRT1 with increasing peptide concentration / affinity (as seen through binding and dissociation) with SIRT1: SPR; for association with SIRT1: Biacore T200, CM5 chip, human SIRT1 immobilized in 10 mM sodium acetate pH 4.0 plus 20 µM NAD+, peptides (K222 acetylated) 20, 100, 200 μM, 20 μl/min, described in words; for association with SIRT1 / binding kinetics (association and dissociation) with SIRT1: contact time 300 s; for association with SIRT1 with increasing peptide concentration: six peptide concentrations 10, 15, 20, 50, 100, 200 µM plus control 0 µM, Supplementary Figure 1; for affinity (as seen through binding and dissociation) with SIRT1: wild-type versus mutant peptide; for affinity (as seen through binding and dissociation) with SIRT1 / binding kinetics (association and dissociation) with SIRT1: in words; for binding kinetics (association and dissociation) with SIRT1: SPR sensorgrams, 20, 100, 200 µM, dissociation time 1200 s
Procedure: The surface plasmon resonance (SPR) experiments were performed on Biacore Model T200 equipment (GE Healthcare Biosciences, Uppsala, Sweden). For the immobilization of human SIRT1 (catalog number S8846, Sigma–Aldrich, Saint Louis, MO), a CM5 sensor chip S series (GE Healthcare Biosciences) has carboxylic groups available for covalent coupling was used. All solutions used were purchased from the equipment supplier (GE Healthcare Biosciences). The procedures described here were performed automatically with the Biacore instrument using pre-established programs for binding amines in peptides or proteins.
Briefly, the carboxylic groups on the CM5 sensor chip surface were activated with EDC + NHS, forming the NHS ester reactive intermediate, which, after washing with HBS-N, readily reacted with amines dissolved in the immobilization solution. The human SIRT1 ligand was dissolved in 10 mM sodium acetate pH 4.0 plus 20 µM NAD+ (catalog number N1636, beta-nicotinamide adenine dinucleotide hydrate, Sigma–Aldrich), which was immobilized onto the Biacore sensor chip according to the manufacturer´s instructions.
To detect interactions between SIRT1 and AIRE WT or AIRE G228W mutant SAND domain peptides, different concentrations of peptides were injected onto the CM5 chip with immobilized SIRT1 protein. […] The surface was regenerated between samples by injecting 2.0 M glycine pH 2.0 (30 s, 30 μl/min) followed by injection of 2.0 M NaCl (30 s, 30 μl/min). The stabilization period between injections after regeneration was 200 s.
The respective sequences of the twenty-amino acid peptide residues (Synbio Technologies, Monmouth Junction, NJ, USA) comprising positions 211 to 230 of the SAND domain of the human AIRE protein are as follows: from the C to N-terminus, AIRE wild-type ([…]) and AIRE G228W mutant ([…]). The underlined K residue represents the position where the acetyl radical was added. The experiment determined whether the K residue underlined was acetylated or not. The AIRE wild-type or AIRE G228W mutation data are available through GenBank NCBI (https://www.ncbi.nlm.nih.gov/) accession numbers (NM_000383.4): c.682G>T G [GGG] > W [TGG], coding sequence variant autoimmune regulator (NP_000374.1): p. Gly228TrpG (Gly) > W missense variant, DbSNP (https://www.ncbi.nlm.nih.gov/snp/rs121434257) and ClinVar (https://www.ncbi.nlm.nih.gov/clinvar/variation/3313/).
Kinetic data were analyzed with Anabel Analysis of Binding Events software ([32]), available at (www.skscience.org/anabel). Data obtained with the different concentrations of AIRE WT or mutant peptides were combined in the same graph.

Row | association with SIRT1 | association with SIRT1 (listed as G228W mutant peptide) | association with SIRT1 (listed as mutant AIRE SAND peptide (Trp228)) | association with SIRT1 with increasing peptide concentration | affinity (as seen through binding and dissociation) with SIRT1 | binding kinetics (association and dissociation) with SIRT1 (listed as wild-type SAND domain peptide) | Sequence | binding kinetics (association and dissociation) with SIRT1 (listed as WT AIRE SAND peptide (Gly228))
1 | less able to associate with SIRT1 | weaker association | lesser association affinity | not observed | weaker association | – | IQQVFESGGSKKCIQVGWEF [mutant W228 SAND peptide, twenty-amino acid peptide comprising positions 211 to 230 of the SAND domain of the human AIRE protein, G228W mutant] | –
2 | more significant association capacity | – | – | progressive increase in the association | stronger affinity | bound faster and dissociated longer | IQQVFESGGSKKCIQVGGEF [wild-type SAND G228 peptide, twenty-amino acid peptide comprising positions 211 to 230 of the SAND domain of the human AIRE protein, wild-type] | associated and dissociated with SIRT1 throughout the analysis
